Read-outs that look alike come from different tables or passages of the source.
Legend:
[1] = system: SARS-CoV-2-ΔOrf7a-NLuc virus; assay: Post-infection treatment: Vero cells infected 24 hrs with SARS-CoV-2-ΔOrf7a-NLuc, then compound for 48 hrs, bioluminescence; format: cell-based; details: for Post-infection at IC50: change in replication relative to DMSO, cells infected 24 hrs, then treated 48 hrs
[2] = system: SARS-CoV-2-ΔOrf7a-NLuc virus; assay: microbe, parasite or virus in culture; format: cell-based; details: for activity at 10 µM: Severe acute respiratory syndrome coronavirus 2, Vero, 72 h, read-out: Mean relative luminescence (n=4); for IC50: Severe acute respiratory syndrome coronavirus 2
[3] = system: Vero cells
[4] = system: HUH7 cells; details: HUH7 screen
[5] = system: SARS-CoV-2-ΔOrf7a-NLuc virus; assay: microbe, parasite or virus in culture; format: cell-based; details: for Mean relative luminescence (n=4): HUH7 screen; for IC50: read-out: HUH7 IC50
[6] = system: recombinant NLuc; format: biochemical; details: for Relative Recombinant NLUC: recombinant NLuc activity relative to DMSO; for Reads Counts per second (read 1): first read column; for Reads Counts per second (read 4): fourth read column; for Reads Counts per second (read 3): third read column
[7] = 1 = untreated, 0 = total inhibition
[8] = Vero screen, relative luminescence
[9] = Vero cells, 10 μM, 1 = DMSO-treated infected cells
[10] = Severe acute respiratory syndrome coronavirus 2, Huh-7

Row | Compound | Post-infection at IC50 [1] | % activity in Vero 100PFU screen [2] | activity at 10 µM [2, 7] | IC50 ([2]; Vero cells) | Mean relative luminescence (n=4) [2, 8] | PrestoBlue relative viability [3, 9] | PrestoBlue relative viability ([3]; Vero screen) | PrestoBlue relative viability [4] | Mean relative luminescence (n=4) [5] | IC50 [5, 10] | Relative Recombinant NLUC [6] | Reads Counts per second (read 1) ([6]; recombinant NLuc) | Reads Counts per second (read 4) ([6]; recombinant NLuc) | Reads Counts per second (read 3) ([6]; recombinant NLuc) | other results
1 | O=C1C(O)=C([C@H]2CC[C@H](c3ccc(Cl)cc3)CC2)C(=O)c2ccccc21 [Atovaquone] | -25% | 4% | 0.959% | 3 µM | 0.009591 | 1.55 | 1.55 | 1.15 | 0.05824 | 7.5 µM | 0.5902 | 224278 Counts per second | 216287 Counts per second | 224646 Counts per second | Reads Counts per second (read 2) ([6]; recombinant NLuc, second read): 226697 Counts per second
2 | CCN1CCN(Cc2ccc(Nc3ncc(F)c(-c4cc(F)c5nc(C)n(C(C)C)c5c4)n3)nc2)CC1 [LY2835219] | -40% | 3.32% | 2.68% | 1 µM | 0.02684 | 0.5512 | 0.5512 | 0.6043 | 0.07242 | 0.2 µM | 0.9189 | 345999 Counts per second | 348685 Counts per second | 345910 Counts per second | 
3 | COC(=O)C1=C(C)NC(C)=C(C(=O)OCCN2CCN(C(c3ccccc3)c3ccccc3)CC2)C1c1cccc([N+](=O)[O-])c1.Cl.Cl (stereo not shown) [Manidipine 2HCl] | -50% | 12% |  |  | 0.1096 | 0.813 | 0.813 | 0.5726 | 0.04447 |  | 0.6382 | 242466 Counts per second | 239469 Counts per second | 242968 Counts per second | Mean relative luminescence (n=4) [2, 7]: 0.1096; IC50 [5]: 2.5 µM
4 | COC(=O)C1=C(C)NC(C)=C(C(=O)OCCN2CCN(C(c3ccccc3)c3ccccc3)CC2)C1c1cccc([N+](=O)[O-])c1 (stereo not shown) [Manidipine] | -50% | 12% | 10.9% | 7.5 µM | 0.1086 | 1.036 | 1.036 | 0.5396 | 0.1 | 2 µM | 0.6615 | 249924 Counts per second | 251205 Counts per second | 250350 Counts per second | 
5 | Cc1[nH]c2ccccc2c1CCNCc1ccc(/C=C/C(=O)NO)cc1 [Panobinostat] | -25% | 3.68% | 1.87% | < 0.2 µM | 0.01867 | 0.6021 | 0.6021 | 0.753 | 0.05897 | < 0.2 µM | 0.8963 | 330994 Counts per second | 341728 Counts per second | 343634 Counts per second | effect on replication in cells already infected ([1]; Vero cells infected 24 hrs then treated 48 hrs): a more modest effect on replication; effect on virus replication [5]: completely blocked replication of SARS-CoV-2 at all doses tested
6 | C=C1CC[C@H](O)C/C1=C/C=C1\CCC[C@]2(C)[C@@H]([C@H](C)CCCC(C)C)CC[C@@H]12 [Vitamin D3] | -30% | 12% | 9.68% | 10 µM | 0.09678 | 1.049 | 1.049 | 0.6418 | 0.02567 | 3 µM | 0.9682 | 370629 Counts per second | 364312 Counts per second | 360711 Counts per second | reduction of virus replication ([2]; Vero cells, 100PFU screen, 10 μM): ≥ 85%; suppression of SARS-CoV-2 replication [5]: ≥ 85%
